Source: PMC11707430, “Novel antibiotics against Staphylococcus aureus without detectable resistance by targeting proton motive force and FtsH” (MedComm, 2025)

What was measured:
S. aureus ATCC 43300 = assay: Concentration-dependent growth inhibition; type: cell-based
Procedure: Concentration-dependent growth inhibition. S. aureus was cultured in TSB to log phase, and diluted with MH broth to ~2×10^6 CFU/mL. One hundred microliters of the bacterial suspension with an equal volume of 2-fold diluted compounds were added in a 96-well cell culture plate. After incubation at 37 ℃ for 16h, the bacterial growth was quantified by measuring the OD value at 630nm (OD630nm).

TA 100 = assay: Ames test; type: cell-based, Salmonella typhimurium
Procedure: (§1) Ames test. Genotoxicity of the compounds was determined by Ames Kit (IPHASE, Beijing, China) containing Salmonella typhimurium (TA97a, TA98, TA100, and TA1535) and E. coli WP2 uvrA (pKM101). Diclofenac and 2-aminofluorene were used as positive controls for TA97a and TA98. Methyl methanesulfonate and 2-aminofluorene were used as positive controls for TA100. Methyl methanesulfonate and 2-aminoanthracene were used as positive controls for WP2 uvrA (pKM101). NaN3 and 2-aminoanthracene were used as positive controls for TA1535. The bottom and top layer culture medium, and S9 mixed solution were prepared according to the manufacturer’s instructions. After incubation at 37℃ for 48h, the colonies were counted.

TA 1535 = assay: Ames test; type: cell-based, Salmonella typhimurium
Procedure: as §1

TA 97a = assay: Ames test; type: cell-based, Salmonella typhimurium
Procedure: as §1

TA 98 = assay: Ames test; type: cell-based, Salmonella typhimurium
Procedure: as §1

[1] = In vivo toxicity analysis; design: species or system ICR mice; conditions: acute, i.p. 30 mg/kg, 24 h
Procedure: In vivo toxicity analysis. For acute in vivo toxicity determination, specific ICR female mice (N = 6 per group) were randomly divided into 3 groups. The mice were intraperitoneally injected with EL+ ethanol (vehicle group), or 30 mg/kg of […]=0546 or STK848198. Twenty-four hours post-administration, blood samples were collected from the ophthalmic venous plexus and the hematological parameters of white blood cell count (WBC), neutrophil ratio (N%), red blood cell count (RBC), hemoglobin levels (HGH), and platelet count (PLT) were measured. Meanwhile, serum samples were also collected by centrifuged at 4000 rpm for 10 min. And the biomarkers of alanine aminotransferase (ALT), urea nitrogen (BUN), and creatine kinase (CK) for liver, kidney and heart function monitoring, respectively, were also analyzed. Then, the mice were euthanized, and the organs of heart, liver, spleen, lungs and kidneys were removed and fixed in 4% neutral paraformaldehyde for Hematoxylin and eosin (H&E) staining. In addition, for 7-day in vivo toxicity detection, specific ICR female mice (N=5 per group) were intraperitoneally injected with 30 mg/kg of […]=0546 or STK848198 every day for a total of 7 days. The body weight was monitored, and the blood samples and organs were also collected and analyzed as described above^43.

With `Cc1nc2c(-c3ccc(Cl)cc3)cnn2c(O)c1Cc1ccccc1` [STK848198] the “concentration at which growth inhibition was observed” value (S. aureus ATCC 43300) was 0.25 ×MIC, the “CFU(x±SD)” value (TA 100; TA 100, +S9, 25 μg/well) was 8 ±2 CFU and the “Fold Change” value (TA 100; TA 100, +S9, 25 μg/well) was 0.2. The “CFU(x±SD)” value (TA 100; TA 100, +S9, 50 μg/well) was 7 ±1 CFU, the “Fold Change” value (TA 100; TA 100, +S9, 50 μg/well) was 0.2 and the “CFU(x±SD)” value (TA 100; TA 100, +S9, 100 μg/well) was 9 ±3 CFU. The “Fold Change” value (TA 100; TA 100, +S9, 100 μg/well) was 0.3, the “CFU(x±SD)” value (TA 100; TA 100, +S9, 200 μg/well) was 8±3 CFU and the “Fold Change” value (TA 100; TA 100, +S9, 200 μg/well) was 0.2. For the same molecule, the “CFU(x±SD)” value (TA 100; TA 100, +S9, 400 μg/well) was 8 ±2 CFU, the “Fold Change” value (TA 100; TA 100, +S9, 400 μg/well) was 0.2 and the “CFU(x±SD)” value (TA 100; TA 100, -S9, 25 μg/well) was 5±2 CFU. The “Fold Change” value (TA 100; TA 100, -S9, 25 μg/well) was 0.2, the “CFU(x±SD)” value (TA 100; TA 100, -S9, 50 μg/well) was 6±2 CFU and the “Fold Change” value (TA 100; TA 100, -S9, 50 μg/well) was 0.2. The “CFU(x±SD)” value (TA 100; TA 100, -S9, 100 μg/well) was 5±2 CFU, the “Fold Change” value (TA 100; TA 100, -S9, 100 μg/well) was 0.1 and the “CFU(x±SD)” value (TA 100; TA 100, -S9, 200 μg/well) was 9±3 CFU. The “Fold Change” value (TA 100; TA 100, -S9, 200 μg/well) was 0.3, the “CFU(x±SD)” value (TA 100; TA 100, -S9, 400 μg/well) was 4±2 CFU and the “Fold Change” value (TA 100; TA 100, -S9, 400 μg/well) was 0.1. The “CFU(x±SD)” value (TA 1535; TA 1535, +S9, 25 μg/well) was 2±1 CFU, the “Fold Change” value (TA 1535; TA 1535, +S9, 25 μg/well) was 0.9 and the “CFU(x±SD)” value (TA 1535; TA 1535, +S9, 50 μg/well) was 2±1 CFU. For the same molecule, the “Fold Change” value (TA 1535; TA 1535, +S9, 50 μg/well) was 0.9, the “CFU(x±SD)” value (TA 1535; TA 1535, +S9, 100 μg/well) was 2±1 CFU and the “Fold Change” value (TA 1535; TA 1535, +S9, 100 μg/well) was 1. For the same molecule, the “CFU(x±SD)” value (TA 1535; TA 1535, +S9, 200 μg/well) was 2±1 CFU, the “Fold Change” value (TA 1535; TA 1535, +S9, 200 μg/well) was 0.7 and the “CFU(x±SD)” value (TA 1535; TA 1535, +S9, 400 μg/well) was 2±1 CFU. For the same molecule, the “Fold Change” value (TA 1535; TA 1535, +S9, 400 μg/well) was 0.7, the “CFU(x±SD)” value (TA 1535; TA 1535, -S9, 25 μg/well) was 2±1 CFU and the “Fold Change” value (TA 1535; TA 1535, -S9, 25 μg/well) was 0.9. The “CFU(x±SD)” value (TA 1535; TA 1535, -S9, 50 μg/well) was 2±2 CFU, the “Fold Change” value (TA 1535; TA 1535, -S9, 50 μg/well) was 1 and the “CFU(x±SD)” value (TA 1535; TA 1535, -S9, 100 μg/well) was 2±2 CFU. For the same molecule, the “Fold Change” value (TA 1535; TA 1535, -S9, 100 μg/well) was 1, the “CFU(x±SD)” value (TA 1535; TA 1535, -S9, 200 μg/well) was 1±1 CFU and the “Fold Change” value (TA 1535; TA 1535, -S9, 200 μg/well) was 0.6. For the same molecule, the “CFU(x±SD)” value (TA 1535; TA 1535, -S9, 400 μg/well) was 1±1 CFU, the “Fold Change” value (TA 1535; TA 1535, -S9, 400 μg/well) was 0.6 and the “CFU(x±SD)” value (TA 97a; +S9, 25 μg/well) was 6±5 CFU. For the same molecule, the “Fold Change” value (TA 97a; +S9, 25 μg/well) was 0.3, the “CFU(x±SD)” value (TA 97a; +S9, 50 μg/well) was 6±2 CFU and the “Fold Change” value (TA 97a; +S9, 50 μg/well) was 0.2. For the same molecule, the “CFU(x±SD)” value (TA 97a; +S9, 100 μg/well) was 4±4 CFU, the “Fold Change” value (TA 97a; +S9, 100 μg/well) was 0.2 and the “CFU(x±SD)” value (TA 97a; +S9, 200 μg/well) was 4±1 CFU. The “Fold Change” value (TA 97a; +S9, 200 μg/well) was 0.2, the “CFU(x±SD)” value (TA 97a; +S9, 400 μg/well) was 5±2 CFU and the “Fold Change” value (TA 97a; +S9, 400 μg/well) was 0.2. For the same molecule, the “CFU(x±SD)” value (TA 97a; -S9, 25 μg/well) was 14±2 CFU, the “Fold Change” value (TA 97a; -S9, 25 μg/well) was 0.6 and the “CFU(x±SD)” value (TA 97a; -S9, 50 μg/well) was 11±1 CFU. The “Fold Change” value (TA 97a; -S9, 50 μg/well) was 0.4, the “CFU(x±SD)” value (TA 97a; -S9, 100 μg/well) was 8±2 CFU and the “Fold Change” value (TA 97a; -S9, 100 μg/well) was 0.3. For the same molecule, the “CFU(x±SD)” value (TA 97a; -S9, 200 μg/well) was 10±4 CFU, the “Fold Change” value (TA 97a; -S9, 200 μg/well) was 0.4 and the “CFU(x±SD)” value (TA 97a; -S9, 400 μg/well) was 4±3 CFU. The “Fold Change” value (TA 97a; -S9, 400 μg/well) was 0.2, the “CFU(x±SD)” value (TA 98; TA 98, +S9, 25 μg/well) was 6 ±1 CFU and the “Fold Change” value (TA 98; TA 98, +S9, 25 μg/well) was 0.9. For the same molecule, the “CFU(x±SD)” value (TA 98; TA 98, +S9, 50 μg/well) was 5 ±1 CFU, the “Fold Change” value (TA 98; TA 98, +S9, 50 μg/well) was 0.8 and the “CFU(x±SD)” value (TA 98; TA 98, +S9, 100 μg/well) was 4 ±1 CFU. For the same molecule, the “Fold Change” value (TA 98; TA 98, +S9, 100 μg/well) was 0.7, the “CFU(x±SD)” value (TA 98; TA 98, +S9, 200 μg/well) was 5 ±1 CFU and the “Fold Change” value (TA 98; TA 98, +S9, 200 μg/well) was 0.7. The “CFU(x±SD)” value (TA 98; TA 98, +S9, 400 μg/well) was 4 ±0 CFU, the “Fold Change” value (TA 98; TA 98, +S9, 400 μg/well) was 0.6 and the “CFU(x±SD)” value (TA 98; TA 98, -S9, 25 μg/well) was 5±3 CFU. For the same molecule, the “Fold Change” value (TA 98; TA 98, -S9, 25 μg/well) was 0.8, the “CFU(x±SD)” value (TA 98; TA 98, -S9, 50 μg/well) was 5±1 CFU and the “Fold Change” value (TA 98; TA 98, -S9, 50 μg/well) was 0.8. The “CFU(x±SD)” value (TA 98; TA 98, -S9, 100 μg/well) was 3±2 CFU, the “Fold Change” value (TA 98; TA 98, -S9, 100 μg/well) was 0.5 and the “CFU(x±SD)” value (TA 98; TA 98, -S9, 200 μg/well) was 1±2 CFU. For the same molecule, the “Fold Change” value (TA 98; TA 98, -S9, 200 μg/well) was 0.2, the “CFU(x±SD)” value (TA 98; TA 98, -S9, 400 μg/well) was 0±1 CFU and the “Fold Change” value (TA 98; TA 98, -S9, 400 μg/well) was 0.1. For the same molecule, the “erythrocyte, leukocyte, platelet parameters, ALT, BUN, CK vs vehicle” value [1] was “No significant difference”.
